Series [1] can be described thus: Storage stability of midodrine in compounds (60° C., 20 days; discoloration and remaining midodrine by HPLC). It is filed as physicochemical. The conditions noted are these: 3 parts midodrine + 100 parts compound, sealed; for STORAGE STABILITY OF MIDODRINE: RATIO OF REMAINING MIDODRINE (% BY WEIGHT): HPLC. As for the experimental part:
Then the color of the mixture after storage was visually observed. When the color was found unchanged compared with that before the storage, the mixture was evaluated as “excellent.” When discoloration was found, the mixture was evaluated as “bad.”
The weight W5 (g) of non-decomposed midodrine remaining in the mixture after storage was quantified by HPLC, and the ratio (% by weight) of remaining midodrine to the amount W6 (g) of midodrine added was computed using the following formula (1).
Ratio(% by weight)of remaining midodrine=100×(W5/W6) (1)

Series [2] in a line: Solubility of midodrine at 25° C. in monomers / compounds (saturated solution, HPLC). As for the experimental part: One hundred parts by weight of a monomer shown in TABLE 1 and 3 parts by weight of midodrine were sufficiently mixed to prepare a midodrine solution, and the dissolved state of midodrine in the midodrine solution was visually observed. The midodrine solution was stored at a temperature of 25° C. for 7 days, and then the dissolved state of midodrine was again visually observed. The dissolvability of midodrine was evaluated according to the following criteria.
A midodrine solution composed of 50 parts by weight of midodrine and 950 parts by weight of a compound shown in TABLE 2 and used as a solvent was prepared. Then the midodrine solution was maintained at 50° C. for 15 minutes and subjected to ultrasonic shaking in a water bath at 25° C. for 10 minutes. The resultant midodrine solution was transferred to a centrifuge tube and left to stand at 25° C. for 2 hours. Then the midodrine solution was centrifuged at a rotation speed of 3,000 rpm using a centrifuge, and the presence or absence of crystals of midodrine on the bottom of the centrifuge tube was observed. When no crystals of midodrine were deposited, the same procedure was repeated with the midodrine-to-compound weight ratio increased up to 200:800 to thereby prepare a saturated midodrine solution.
A certain amount of the supernatant of the saturated midodrine solution after centrifugation was collected, and the collected supernatant was subjected to HPLC measurement to quantify the weight W7 (g) of midodrine dissolved in the saturated midodrine solution.
(W8: weight (g) of compound used as solvent in saturated midodrine solution)

Series [3] in a line: Dissolvability of midodrine in monomers (visual observation). In kind it is physicochemical. The conditions noted are these: 3 parts by weight midodrine in 100 parts by weight of the monomer; observed immediately and after 7 days at 25° C.
From the text: High: No deposition of midodrine was found in any of the midodrine solution immediately after preparation and the midodrine solution after storage for 7 days.
Middle: Deposition of midodrine was found in the solution immediately after preparation, but no deposition of midodrine was found in the midodrine solution after storage for 7 days.
Low: Deposition of midodrine was found in the midodrine solution immediately after preparation and also in the midodrine solution after storage for 7 days.

Structures can show the parent of a compound that is named as a salt. Where two headings read alike, the source gives them in different places. A value given as a limit tells only on which side of the number the result lay.

For `CC(C)CCCC(C)CCCC(C)CCCCC(C)CCCC(C)CCCC(C)C` (centres unmarked), the “STORAGE STABILITY OF MIDODRINE: DISCOLORATION TEST” value in series [1] (colour observed visually) is recorded as “EXCELLENT”.

As to `C=C(C)C(=O)OCCCC` [BUTYL METHACRYLATE], in series [2] (in the monomer as solvent, 25° C., grams of midodrine per 100 g of solvent), the “SOLUBILITY OF MIDODRINE” value was 0.10 g. Also, the “DISSOLVABILITY OF MIDODRINE” value in series [3] is “LOW”.

For `C=C(C)C(=O)OCCCCCCCCCCCC` [DODECYL METHACRYLATE], the “SOLUBILITY OF MIDODRINE” value in series [2] is listed as 0.02 g. Moreover, the “DISSOLVABILITY OF MIDODRINE” value in series [3] is on record as “LOW”.

For the molecule `CCOC(=O)CC(O)(CC(=O)OCC)C(=O)OCC` [TRIETHYL CITRATE], the “STORAGE STABILITY OF MIDODRINE: DISCOLORATION TEST” value in series [1] (colour observed visually) is reported as “EXCELLENT”.

For `NCCO` [MONOETHANOLAMINE], the “STORAGE STABILITY OF MIDODRINE: DISCOLORATION TEST” value in series [1] (colour observed visually) is reported as “BAD”.

In the case of `CCCCCCCCCCC(CO)CCCCCCCC` (centres unmarked) [OCTYLDODECANOL], in series [1], the “STORAGE STABILITY OF MIDODRINE: RATIO OF REMAINING MIDODRINE (% BY WEIGHT)” value is on record as 100.0 % BY WEIGHT. In addition, the “STORAGE STABILITY OF MIDODRINE: DISCOLORATION TEST” value in series [1] (colour observed visually) was “EXCELLENT”.

`CCCCCCCCCCCCCC(=O)OC(C)C` [ISOPROPYL MYRISTATE]: the “STORAGE STABILITY OF MIDODRINE: DISCOLORATION TEST” value in series [1] (colour observed visually) is “EXCELLENT”. The “Value in parentheses after the liquid solubilizing aid (solubility of midodrine in the compound)” value (“Value in parentheses” below) in series [2] was “ISOPROPYL MYRISTATE (0.02)”.

With `C=CC(=O)OCC` [ETHYL ACRYLATE], the “SOLUBILITY OF MIDODRINE” value in series [2] came to 0.25 g. Further, the “DISSOLVABILITY OF MIDODRINE” value in series [3] is reported as “LOW”.

Take `CCCCCCCCCCCCO` [LAURYL ALCOHOL]: the “STORAGE STABILITY OF MIDODRINE: DISCOLORATION TEST” value in series [1] (colour observed visually) is “BAD”.

In the case of `C=CC(=O)O` [ACRYLIC ACID], the “DISSOLVABILITY OF MIDODRINE” value in series [3] is “HIGH”.

For `CC(O)CO` (centres unmarked) [PROPYLENE GLYCOL], in series [1] (colour observed visually), the “STORAGE STABILITY OF MIDODRINE: DISCOLORATION TEST” value was “EXCELLENT”. Besides, the “SOLUBILITY OF MIDODRINE” value in series [2] amounted to 15.67 g.

For `CC(C)CCCCCCCCCCCCCCC(=O)O` [ISOSTEARIC ACID], the “STORAGE STABILITY OF MIDODRINE: DISCOLORATION TEST” value in series [1] (colour observed visually) is on record as “BAD”.

Consider `CCCCCCCC/C=C\CCCCCCCCO` [OLEYL ALCOHOL], for which the “STORAGE STABILITY OF MIDODRINE: DISCOLORATION TEST” value in series [1] (colour observed visually) is listed as “BAD”. Moreover, the “SOLUBILITY OF MIDODRINE” value in series [2] came to 0.40 g.

Turning to `CC(C)CCCCCCCCCCCCCCCO` [ISOSTEARYL ALCOHOL], the “STORAGE STABILITY OF MIDODRINE: DISCOLORATION TEST” value in series [1] (colour observed visually) is on record as “EXCELLENT”.

Turning to `CCCCCCCCCCCC(=O)OCCCCCC` [HEXYL LAURATE], the “STORAGE STABILITY OF MIDODRINE: DISCOLORATION TEST” value in series [1] (colour observed visually) was “EXCELLENT”. Further, in series [2], the “SOLUBILITY OF MIDODRINE” value was determined as 0.02 g.

As to `OCCCCO` [BUTYLENE GLYCOL], the “STORAGE STABILITY OF MIDODRINE: DIS[…]” value in series [1] (colour observed visually) is on record as “EXCELLENT”. Further, the “SOLUBILITY OF MIDODRINE” value in series [2] was 7.72 g.

For `CCCCCCCCC(CO)CCCCCC` (centres unmarked) [HEXYLDECANOL], in series [1], the “STORAGE STABILITY OF MIDODRINE: RATIO OF REMAINING MIDODRINE (% BY WEIGHT)” value turned out to be 90.4 % BY WEIGHT. In series [1] (colour observed visually), the “STORAGE STABILITY OF MIDODRINE: DISCOLORATION TEST” value is “EXCELLENT”. Further, the “Value in parentheses” value in series [2] is recorded as “HEXYLDECANOL (0.26)”.

`C=CN1CCCC1=O` [1-VINYL-2-PYRROLIDONE]: the “SOLUBILITY OF MIDODRINE” value in series [2] is recorded as >3.0 g. In series [3], the “DISSOLVABILITY OF MIDODRINE” value was “HIGH”.

Regarding `C=C(C)C(=O)OCC(CC)CCCC` (centres unmarked) [2-ETHYLHEXYL METHACRYLATE], in series [3], the “DISSOLVABILITY OF MIDODRINE” value is given as “LOW”.

With `CC(=O)OCC(COC(C)=O)OC(C)=O` [TRIACETIN], in series [1] (colour observed visually), the “STORAGE STABILITY OF MIDODRINE: DISCOLORATION TEST” value is listed as “EXCELLENT”. Further, in series [2], the “SOLUBILITY OF MIDODRINE” value is reported as 0.70 g.

Consider `CCCCCCCCCCCCCCCC(=O)OC(C)C` [ISOPROPYL PALMITATE], for which the “STORAGE STABILITY OF MIDODRINE: DISCOLORATION TEST” value in series [1] (colour observed visually) is listed as “EXCELLENT”. For the same molecule, in series [2], the “Value in parentheses” value is listed as “ISOPROPYL PALMITATE (0.02)”.

Consider `CCCCCCC(O)CO` (centres unmarked) [OCTANEDIOL], for which, in series [1], the “STORAGE STABILITY OF MIDODRINE: RATIO OF REMAINING MIDODRINE (% BY WEIGHT)” value is 48.0 % BY WEIGHT. Besides, the “STORAGE STABILITY OF MIDODRINE: DISCOLORATION TEST” value in series [1] (colour observed visually) is on record as “BAD”. In addition, in series [2], the “SOLUBILITY OF MIDODRINE” value was found to be 1.78 g.

The values are drawn from US20130287823A1, “PATCH” (priority 2010, published 2013).
